Measurements taken from BindingDB's records for doi:10.1021/jm5013243 (Monash University (Parkville Campus), 2015).
Values joined by “and” are separate entries in the source; they are usually repeats but may differ in a detail not shown here. Equal entries are not always repeated.

Key:
[1] = target: Muscarinic acetylcholine receptor M1 (Homo sapiens) (UniProt P11229); experiment: Displacement of [3H]NMS from human mAChR1 receptor expressed in F1pIn CHO cells after 60 mins by scintillation counting analysis
[2] = target: Muscarinic acetylcholine receptor M1 (Homo sapiens) (UniProt P11229); experiment: Partial agonist activity at human mAChR1 receptor expressed in F1pIn CHO cells assessed as induction of intracellular calcium mobilization
[3] = target: Muscarinic acetylcholine receptor M1 (Homo sapiens) (UniProt P11229); experiment: Agonist activity at human mAChR1 receptor expressed in F1pIn CHO cells assessed as induction of intracellular calcium mobilization

Chain of Muscarinic acetylcholine receptor M1 (Homo sapiens) (P11229 whole entry, looked up): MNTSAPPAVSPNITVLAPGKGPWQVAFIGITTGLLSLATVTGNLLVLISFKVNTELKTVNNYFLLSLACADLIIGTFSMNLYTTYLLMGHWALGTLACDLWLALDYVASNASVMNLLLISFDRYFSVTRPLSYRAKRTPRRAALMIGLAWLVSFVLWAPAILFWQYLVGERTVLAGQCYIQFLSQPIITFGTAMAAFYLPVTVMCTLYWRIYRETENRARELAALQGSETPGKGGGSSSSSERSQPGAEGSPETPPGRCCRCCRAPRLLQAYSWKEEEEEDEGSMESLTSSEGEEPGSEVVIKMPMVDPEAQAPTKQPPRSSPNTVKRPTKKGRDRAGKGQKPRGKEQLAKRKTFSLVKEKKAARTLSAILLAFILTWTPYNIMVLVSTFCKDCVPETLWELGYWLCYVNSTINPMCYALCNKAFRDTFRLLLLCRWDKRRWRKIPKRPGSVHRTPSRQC

| IC50 [1] | EC50 [2] | EC50 [3] [µM] | SMILES |
| --- | --- | --- | --- |
| 4.19 µM and 4.17 µM | 1.04 µM and 1.05 µM |  | O=C1COc2ccccc2N1CCCN1CCN(c2nsc3ccccc23)CC1 |
| 5.18 µM and 5.13 µM |  |  | COc1ccccc1N1CCN(CCCN2C(=O)COc3ccccc32)CC1 |
| 8.53 µM and 8.51 µM |  | 0.129 | O=C(Cc1ccccc1)NC1CCN(CCCN2C(=O)COc3ccccc32)CC1 [N-{1-[3-(3-Oxo-2,3-dihydrobenzo[1,4]oxazin-4-yl)propyl]-piperidin-4-yl}-2-phenylacetamide] |

Further lines, the compound ahead of its results:

| SMILES | IC50 [1] | EC50 [2] | EC50 [3] [µM] |
| --- | --- | --- | --- |
| O=C1COc2ccccc2N1CCCN1CCN(c2cccc3[nH]c(=O)oc23)CC1 | 4.27 µM and 4.26 µM |  |  |
| O=C1COc2ccccc2N1CCCN1CCN(c2cccc(Cl)c2Cl)CC1 | 1.86 µM and 1.87 µM |  |  |
| O=C1COc2ccccc2N1CCCN1CCC(c2noc3cc(F)ccc23)CC1 | 3.25 µM and 3.24 µM |  |  |
